{
  "source": "paper PMC6692352",
  "about": "“DF2726A, a new IL-8 signalling inhibitor, is able to counteract chemotherapy-induced neuropathic pain” (Scientific Reports, 2019)",
  "key": {"p-JAK2": {"test_system": "p-JAK2", "assay": "p-JAK2 western blotting in F11-derived neurons", "format": "cell-based", "details": "24 h"}, "[1]": {"test_system": "oxaliplatin-induced mechanical allodynia", "assay": "Oxaliplatin-induced mechanical allodynia (Dynamic Plantar Aesthesiometer)", "format": "in vivo, male Wistar rats", "details": "30 mg/kg os for 24 days; at 14 (P < 0.05) and 21 days (P < 0.01) vs Oxa + saline", "description": "Behavioural tests were performed on male Wistar rats (200–250 g, Harlan, Italy) housed in the animal care facility at the Department of Pharmacy of the University of Naples Federico II, Italy, as previously described. Animals were housed, in a group of five, in a room with controlled temperature (22 ± 1 °C), humidity (60 ± 10%) and light (12 h per day); food and water were available ad libitum. All animals were weighted on the day of each treatment. All behavioural tests were performed between 09:00 and 17:00 h, and the animals were used only once. Animal care and manipulations were conducted in conformity with International and National law and policies (EU Directive 2010/63/EU for animal experiments, ARRIVE guidelines, and the Basel declaration including the 3R concept). The procedures reported here were approved by the Institutional Committee on the Ethics of Animal Experiments (CVS) of the University of Naples Federico II and by Ministero della Salute under protocol no. 2014-00884607. […]\nTo assess for changes in sensation or in the development of mechanical allodynia, sensitivity to tactile stimulation was measured using the Dynamic Plantar Aesthesiometer (DPA, Ugo Basile, Italy), which is an automated version of the von Frey hair assessment. […] The means of paw withdrawal (expressed in grams) were calculated from an average of four separate measurements. […]"}, "[2]": {"test_system": "spontaneous human polimorphonuclear neutrophil (hPMN) migration", "assay": "Spontaneous hPMN migration", "format": "cell-based", "source_text": "chemotherapy-induced neuropathic pain”\nBenedetti, Antonio Giordano, Annamaria Cimini, Marcello Allegretti.\nChemokines were from PeproTech (London, UK). Chemicals and cell culture reagents were from Sigma Aldrich (Saint Louis, MI, USA).\nCell isolation and culture\nL’Aquila, Italy. Ethical clearance was obtained to perform these experiments. Human PMNs were […]\nblood cells as previously described 1.\nCell viability, as measured by Trypan Blue dye exclusion, was greater than 98%. […]\nmicrochemotaxis chamber, as previously described 2. Briefly, 25 µl of control medium (PBS for […]\nthe lower compartment of the chemotaxis chamber. […]\nvehicle were seeded in the upper compartment. The two compartments were separated by 5 µm pre-size polycarbonate filter (polyvinylpyrrolidone-free for PMN chemotaxis). The chamber was […]\nPhysicochemical characterization […]\nand a turbidity-sensing device. […]\nwater/HBSS to a final concentration of 10 μM. Cell membrane homogenates (48 μg protein) were […]"}, "p-FAK": {"test_system": "p-FAK", "assay": "p-FAK western blotting in F11-derived neurons", "format": "cell-based", "details": "24 h"}, "Iba-1": {"test_system": "Iba-1", "assay": "Western blot of DRG of oxaliplatin rats, microglia marker Iba-1", "format": "in vivo, male Wistar rats", "details": "30 mg/kg os; p < 0.01 vs OXA rats", "description": "Animals were sacrificed and dorsal root ganglia (DRG) (L4-L6) were removed and stored at […]. They were homogenized on ice-cold lysis buffer [20 mM Tris–HCl (pH 7.5), 10 mM NaF, 150 mM NaCl, 1% Nonidet P-40, 1 mM phenylmethylsulfonyl fluoride, 1 mM Na3VO4, leupeptin and trypsin inhibitor 10 μg/mL; 20 µl/sample, as previously described.\nAfter 1 h, tissue lysates were obtained by centrifugation at 20,000 g for 15 min at 4 °C. Protein concentrations were estimated by the Bio-Rad protein assay using bovine serum albumin as standard.\nDRG lysate proteins (30 μg) were dissolved in Laemmli sample buffer, boiled for 5 min, and separated on SDS-polyacrylamide gel elctrophoresis and transferred onto nitrocellulose membrane (240 mA for 40 min at room temperature). […] The protein bands were scanned and densitometrically analyzed with a model GS-700 imaging densitometer (Bio-Rad Laboratories, Milan, Italy). […]"}, "[3]": {"details": "DF2726A 1 µM + oxaliplatin 20 µM"}},
  "data": [
    {"smiles": "CC(C)(C(=O)O)c1ccc(Nc2nc(C(F)(F)F)cs2)cc1", "note": "[DF2726A]", "values": [
      {"measurement": "p-JAK2, oxaliplatin-treated neurons", "setting": "p-JAK2; [3]", "value": "restored control conditions"},
      {"measurement": "p-JAK2, paclitaxel-treated neurons", "setting": "p-JAK2; DF2726A + paclitaxel 10 nM", "value": "restored control conditions"},
      {"measurement": "Effect on oxaliplatin-induced mechanical allodynia (paw withdrawal threshold, DPA test)", "setting": "[1]", "value": "significant anti-allodynic effect"},
      {"measurement": "Inhibition of spontaneous hPMN migration per se", "setting": "[2]", "value": "did not inhibit"},
      {"measurement": "p-FAK levels, oxaliplatin-treated neurons", "setting": "p-FAK; [3]", "value": "decreased in the presence of DF2726A"},
      {"measurement": "p-FAK levels, paclitaxel-treated neurons", "setting": "p-FAK; DF2726A + paclitaxel 10 nM", "value": "decreased in the presence of DF2726A"},
      {"measurement": "Iba-1 expression in DRG of oxaliplatin rats", "setting": "Iba-1", "value": "significantly reduced the expression"}
    ]}
  ]
}
